# pEC50: −log10 of the molar value.
# Tested on: HBV
# Assay: HBV infection in HepG2-NTCP cells (HBeAg AlphaLISA in supernatants)
# Format: cell-based
# Details: Hepatitis B virus, 192 h; HBV infection of HepG2-NTCP cells; HBeAg in supernatants at day 8 post infection; read-out: Cellular EC50
# How it was run: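 HepG2-NTCP A3 cells were pre-incubated 2 h with 3-fold serially diluted compounds, then infected with HBV at 2000 GE/cell with 4% PEG (0.5% DMSO final). After washing on day 1, cells stayed in 2.5% DMSO medium; supernatant HBeAg measured by AlphaLISA on day 8, EC50 versus DMSO controls.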
row,SMILES,pEC50
1,COC1CCN(c2cc3c(cc2-c2ccc(F)c(C(=O)O)c2)S(=O)(=O)N(C)[C@H](C2CCCCC2)CN3c2ccccc2)CC1 [Example 534],6.00 to 7.00
2,CC(=O)N1CCN(c2cc3c(cc2-c2ccc(F)c(C(=O)O)c2)S(=O)(=O)N(C)[C@H](C2CCCCC2)CN3c2ccccc2)CC1 [Example 535],6.00 to 7.00
3,CN1[C@H](C2CCCCC2)CN(c2ccccc2)c2cc(N3CCN(S(C)(=O)=O)CC3)c(-c3ccc(F)c(C(=O)O)c3)cc2S1(=O)=O [Example 536],6.00 to 7.00
4,COCCN(C)c1cc2c(cc1-c1ccc(F)c(C(=O)O)c1)S(=O)(=O)N(C)[C@H](C1CCCCC1)CN2c1ccccc1 [Example 537],6.00 to 7.00
5,CCCC[C@H]1CN(c2ccccc2)c2cc(N3CCCC3)c(-c3cccc(C(=O)O)c3)cc2S(=O)(=O)N1C [Example 538],< 6.00
6,CCCC[C@H]1CN(c2ccccc2)c2cc(Nc3ccccc3F)c(-c3cccc(C(=O)O)c3)cc2S(=O)(=O)N1C [Example 539],< 6.00
7,CCCC[C@H]1CN(c2ccccc2)c2cc(N3CCCCC3)c(-c3cccc(C(=O)O)c3)cc2S(=O)(=O)N1C [Example 540],< 6.00
8,CCCC[C@H]1CN(c2ccccc2)c2cc(N(C)c3ccc(F)cc3)c(-c3cccc(C(=O)O)c3)cc2S(=O)(=O)N1C [Example 541],< 6.00
9,CCCC[C@H]1CN(c2ccccc2)c2cc(N(C)C)c(-c3cccc(C(=O)O)c3)cc2S(=O)(=O)N1C [Example 542],< 6.00
10,CCCC[C@H]1CN(c2ccccc2)c2cc(N3CCCC3)c(-c3ccc(F)c(C(=O)O)c3)cc2S(=O)(=O)N1C [Example 543],< 6.00
11,CC(C)CC1CN(c2ccccc2)c2cc(N3CCCC3)c(-c3cccc(C(=O)O)c3)cc2S(=O)(=O)N1C (stereo not drawn) [Example 544],6.00 to 7.00
12,CC(C)CC1CN(c2ccccc2)c2cc(N3CCCCC3)c(-c3cccc(C(=O)O)c3)cc2S(=O)(=O)N1C (stereo not drawn) [Example 545],> 7.00
13,CC(C)C[C@@H]1CN(c2ccccc2)c2cc(Nc3ccccc3F)c(-c3ccc(Cl)c(C(=O)O)c3)cc2S(=O)(=O)N1C [Example 546],6.00 to 7.00
14,CC(C)C[C@@H]1CN(c2ccccc2)c2cc(Nc3cccc(F)c3)c(-c3ccc(Cl)c(C(=O)O)c3)cc2S(=O)(=O)N1C [Example 547],6.00 to 7.00
15,CC(C)C[C@@H]1CN(c2ccccc2)c2cc(Nc3ccc(F)cc3)c(-c3ccc(Cl)c(C(=O)O)c3)cc2S(=O)(=O)N1C [Example 548],6.00 to 7.00
16,CC(C)C[C@@H]1CN(c2ccccc2)c2cc(Nc3ccccn3)c(-c3ccc(Cl)c(C(=O)O)c3)cc2S(=O)(=O)N1C [Example 549],6.00 to 7.00
17,CC(C)C[C@@H]1CN(c2ccccc2)c2cc(Nc3ccncc3)c(-c3ccc(Cl)c(C(=O)O)c3)cc2S(=O)(=O)N1C [Example 550],< 6.00
18,CC(C)C[C@@H]1CN(c2ccccc2)c2cc(N3CCc4ccccc43)c(-c3ccc(Cl)c(C(=O)O)c3)cc2S(=O)(=O)N1C [Example 551],6.00 to 7.00
19,CC(C)C[C@@H]1CN(c2ccccc2)c2cc(N3CCCCC3)c(-c3ccc(Cl)c(C(=O)O)c3)cc2S(=O)(=O)N1C [Example 552],> 7.00
20,CC(C)C[C@@H]1CN(c2ccccc2)c2cc(N3CCc4cccc(F)c43)c(-c3ccc(Cl)c(C(=O)O)c3)cc2S(=O)(=O)N1C [Example 553],6.00 to 7.00
21,CC(C)C[C@@H]1CN(c2ccccc2)c2cc(N(C)c3ccc(F)cc3)c(-c3ccc(Cl)c(C(=O)O)c3)cc2S(=O)(=O)N1C [Example 554],6.00 to 7.00
22,CC(C)C[C@@H]1CN(c2ccccc2)c2cc(N(C)c3cccc(F)c3)c(-c3ccc(Cl)c(C(=O)O)c3)cc2S(=O)(=O)N1C [Example 555],6.00 to 7.00
23,CC(C)C[C@@H]1CN(c2ccccc2)c2cc(N(C)c3ccccc3F)c(-c3ccc(Cl)c(C(=O)O)c3)cc2S(=O)(=O)N1C [Example 556],6.00 to 7.00
24,CC(C)C[C@@H]1CN(c2ccccc2)c2cc(N3CCCc4ccccc43)c(-c3ccc(Cl)c(C(=O)O)c3)cc2S(=O)(=O)N1C [Example 557],6.00 to 7.00

row,SMILES,pEC50
1,"CN1[C@H](C2CCCCC2)CN(c2ccccc2)c2cc(N3CCCCC3)c(-c3ccc(Cl)c(C(=O)O)c3)cc2S1(=O)=O [Example 558, (R)-2-chloro-5-(3-cyclohexyl-2-methyl-1,1-dioxido-5-phenyl-7-(piperidin-1-yl)-2,3,4,5-tetrahydrobenzo[f][1,2,5]thiadiazepin-8-yl)benzoic acid]",> 7.00
2,COC1CCN(c2cc3c(cc2-c2ccc(Cl)c(C(=O)O)c2)S(=O)(=O)N(C)[C@H](C2CCCCC2)CN3c2ccccc2)CC1 [Example 559],6.00 to 7.00
3,"CCCC[C@@H]1CN(c2ccccc2)c2cc(Nc3ccccc3F)c(-c3cc(F)c(F)c(C(=O)O)c3)cc2S(=O)(=O)N1C [Example 560, (R)-5-(3-butyl-7-((2-fluorophenyl)amino)-2-methyl-1,1-dioxido-5-phenyl-2,3,4,5-tetrahydrobenzo[f][1,2,5]thiadiazepin-8-yl)-2,3-difluorobenzoic acid]",> 7.00
4,CC(C)C[C@@H]1CN(C(C)C)c2cc(Nc3ccccc3F)c(-c3ccc(F)c(C(=O)O)c3)cc2S(=O)(=O)N1C [Example 561],6.00 to 7.00
5,"CSc1cc2c(cc1-c1cc(C)c(C(=O)O)s1)S(=O)(=O)N(C)[C@H](C1CCCCC1)CN2c1ccccc1 [Example 562, (R)-5-(3-cyclohexyl-2-methyl-7-(methylthio)-1,1-dioxido-5-phenyl-2,3,4,5-tetrahydrobenzo[f][1,2,5]thiadiazepin-8-yl)-3-methylthiophene-2-carboxylic acid]",> 7.00
6,CCCCC1CN(c2ccccc2)c2cc(CN3CCCCC3)c(-c3ccc(F)c(C(=O)O)c3)cc2S(=O)(=O)N1C (stereo not drawn) [Example 564],6.00 to 7.00
7,CCCCC1CN(c2ccccc2)c2cc(CNc3ccccc3F)c(-c3ccc(F)c(C(=O)O)c3)cc2S(=O)(=O)N1C (stereo not drawn) [Example 565],6.00 to 7.00
8,"CCCC[C@@H]1CN(c2ccccc2)c2cc(C)c(-c3ccc(F)c(C(=O)O)c3)cc2S(=O)(=O)N1C [Example 566, (R)-5-(3-butyl-2,7-dimethyl-1,1-dioxido-5-phenyl-2,3,4,5-tetrahydrobenzo[f][1,2,5]thiadiazepin-8-yl)-2-fluorobenzoic acid]",6.00 to 7.00
9,CCCC[C@@H]1CN(c2ccccc2)c2cc(C)c(-c3ccc(Cl)c(C(=O)O)c3)cc2S(=O)(=O)N1C [Example 567],6.00 to 7.00
10,"CCCCC1CN(c2ccccc2)c2cc(C(F)(F)F)c(-c3ccc(F)c(C(=O)O)c3)cc2S(=O)(=O)N1C (stereo not drawn) [Example 568, 5-(3-butyl-2-methyl-1,1-dioxido-5-phenyl-7-(trifluoromethyl)-2,3,4,5-tetrahydrobenzo[f][1,2,5]thiadiazepin-8-yl)-2-fluorobenzoic acid]",6.00 to 7.00
11,"CN1[C@H](C2CCCCC2)CNc2cc(-c3ccccc3F)c(-c3ccc(F)c(C(=O)O)c3)cc2S1(=O)=O [Example 569, (R)-5-(3-cyclohexyl-7-(2-fluorophenyl)-2-methyl-1,1-dioxido-2,3,4,5-tetrahydrobenzo[f][1,2,5]thiadiazepin-8-yl)-2-fluorobenzoic acid]",> 7.00
12,CN1[C@H](C2CCCCC2)CNc2cc(-c3ccncc3)c(-c3ccc(F)c(C(=O)O)c3)cc2S1(=O)=O [Example 570],< 6.00
13,CN1[C@H](C2CCCCC2)CNc2cc(-c3ccoc3)c(-c3ccc(F)c(C(=O)O)c3)cc2S1(=O)=O [Example 571],6.00 to 7.00
14,CN1[C@H](C2CCCCC2)CNc2cc(-c3cccnc3)c(-c3ccc(F)c(C(=O)O)c3)cc2S1(=O)=O [Example 572],6.00 to 7.00
15,"CC(C)C[C@@H]1CN(c2ccccc2)c2cc(-c3ccc(F)cc3)c(-c3ccc(F)c(C(=O)O)c3)cc2S(=O)(=O)N1C [Example 573, (R)-2-fluoro-5-(7-(4-fluorophenyl)-3-isobutyl-2-methyl-1,1-dioxido-5-phenyl-2,3,4,5-tetrahydrobenzo[f][1,2,5]thiadiazepin-8-yl)benzoic acid]",> 7.00
16,CC(C)C[C@@H]1CN(c2ccccc2)c2cc(-c3cccc(F)c3)c(-c3ccc(F)c(C(=O)O)c3)cc2S(=O)(=O)N1C [Example 575],> 7.00
17,CC(C)C[C@@H]1CN(c2ccccc2)c2cc(-c3ccccc3F)c(-c3ccc(F)c(C(=O)O)c3)cc2S(=O)(=O)N1C [Example 576],> 7.00
18,CC(C)C[C@@H]1CN(c2ccccc2)c2cc(-c3cccc(NC=O)c3O)c(-c3ccc(F)c(C(=O)O)c3)cc2S(=O)(=O)N1C [Example 577],< 6.00
19,CC(C)C[C@@H]1CN(c2ccccc2)c2cc(-c3cccc4ncoc34)c(-c3ccc(F)c(C(=O)O)c3)cc2S(=O)(=O)N1C [Example 578],6.00 to 7.00
20,CC(C)C[C@@H]1CN(c2ccccc2)c2cc(-c3ccc4ncoc4c3)c(-c3ccc(F)c(C(=O)O)c3)cc2S(=O)(=O)N1C [Example 579],6.00 to 7.00
21,CC(C)C[C@@H]1CN(c2ccccc2)c2cc(-c3cccnc3)c(-c3ccc(F)c(C(=O)O)c3)cc2S(=O)(=O)N1C [Example 580],> 7.00
22,CN1C[C@@H](C2CCCCC2)N(C)S(=O)(=O)c2cc(-c3ccc(F)c(C(=O)O)c3)c(-c3ccccc3F)cc21 [Example 581],6.00 to 7.00
23,"CN1C[C@@H](C2CCCCC2)N(C)S(=O)(=O)c2cc(-c3ccc(F)c(C(=O)O)c3)c(Cl)cc21 [Example 582, (R)-5-(7-chloro-3-cyclohexyl-2,5-dimethyl-1,1-dioxido-2,3,4,5-tetrahydrobenzo[f][1,2,5]thiadiazepin-8-yl)-2-fluorobenzoic acid]",6.00 to 7.00
24,"CN1[C@H](C2CCCCC2)CN(c2ccccc2)c2cc(C3CC3)c(-c3cc(F)c(F)c(C(=O)O)c3)cc2S1(=O)=O [Example 583, (R)-5-(3-cyclohexyl-7-cyclopropyl-2-methyl-1,1-dioxido-5-phenyl-2,3,4,5-tetrahydrobenzo[f][1,2,5]thiadiazepin-8-yl)-2,3-difluorobenzoic acid]",6.00 to 7.00
